Measurements: ChEMBL document CHEMBL3817793, “Recent Progress in the Discovery of Next Generation Inhibitors of Aromatase from the Structure-Function Perspective” (J Med Chem, 2016)

Legend:
Aromatase [1] = target: T1, Aromatase (Homo sapiens, UniProt P11511); test: Inhibition of human aromatase using testosterone as substrate incubated for 1 hr by HTRF assay
T1 sequence (P11511 whole entry): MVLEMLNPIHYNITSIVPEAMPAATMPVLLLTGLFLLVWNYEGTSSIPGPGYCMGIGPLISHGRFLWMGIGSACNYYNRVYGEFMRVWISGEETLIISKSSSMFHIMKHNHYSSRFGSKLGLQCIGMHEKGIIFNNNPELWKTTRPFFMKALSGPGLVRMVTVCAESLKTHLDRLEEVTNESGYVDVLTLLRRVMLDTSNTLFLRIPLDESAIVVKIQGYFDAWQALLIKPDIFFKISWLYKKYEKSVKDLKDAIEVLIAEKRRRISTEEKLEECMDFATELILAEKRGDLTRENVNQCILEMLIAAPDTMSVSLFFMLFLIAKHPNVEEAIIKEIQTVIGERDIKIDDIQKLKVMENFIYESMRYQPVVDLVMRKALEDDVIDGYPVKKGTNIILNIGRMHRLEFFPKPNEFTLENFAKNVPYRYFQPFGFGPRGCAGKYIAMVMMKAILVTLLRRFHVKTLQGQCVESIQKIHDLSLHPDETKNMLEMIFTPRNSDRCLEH

Aromatase [2] = target: T1, Aromatase; test: Inhibition of human placental microsomal aromatase using [1beta-3H] androstenedione as substrate assessed as tritiated H2O release after 15 mins by liquid scintillation counting method
Aromatase [3] = target: T1, Aromatase; test: Inhibition of human placental microsomal aromatase using [1beta-3H] androstenedione as substrate assessed as tritiated H2O release preincubated for 5 mins followed by protein addition measured after 20 mins by beta counting method
Aromatase [4] = target: T1, Aromatase
Description: Competitive inhibition of human placental microsomal aromatase using androgen as substrate

Aromatase [5] = target: T1, Aromatase; test: Inhibition of human placental microsomal aromatase using testosterone as substrate assessed as formation of estradiol after 10 mins
Aromatase [6] = target: T1, Aromatase; test: Inhibition of particulate fractions of human breast cancer derived aromatase

Compound: Fc1ccc(-c2cc(-n3cccc3)c3ccccc3n2)cc1
- IC50 (Aromatase [1]): 800 nM

Compound: C=CC[C@@H]1CC2=CCCC[C@]2(C)[C@H]2CC[C@]3(C)C(=O)CC[C@H]3[C@H]12
- IC50 (Aromatase [2]): 750 nM

Compound: C[C@]12Cc3cc[nH]c3C(=O)[C@@H]1CC[C@@H]1[C@@H]2CC[C@]2(C)[C@@H](O)CC[C@@H]12
- IC50 (Aromatase [3]): 512 nM

Compound: COc1ccc2c(Cc3ccccc3)c(-c3ccc(Cl)cc3)c(=O)oc2c1
- Ki (Aromatase [4]): 84 nM

Compound: C=CC[C@@H]1CC2=CC(=O)CC[C@]2(C)[C@H]2CC[C@]3(C)C(=O)CC[C@H]3[C@H]12
- IC50 (Aromatase [2]): 590 nM

Compound: C=CC[C@@H]1CC2=CC(=O)C=C[C@]2(C)[C@H]2CC[C@]3(C)[C@@H](O)CC[C@H]3[C@H]12
- IC50 (Aromatase [2]): 450 nM

Compound: CC/C(=C(\c1ccc(O)cc1)c1ccc(OCCN(C)C)cc1)c1ccccc1 [AFIMOXIFENE]
- IC50 (Aromatase [5]): 530000 nM

Compound: C[C@]12CCC(=O)C(O)=C1CC[C@@H]1[C@@H]2CC[C@]2(C)C(=O)CC[C@@H]12 [FORMESTANE]
- IC50 (Aromatase [6]): 30 nM
